Assay results published in patent US20250312394A1, “Lacticaseibacillus Rhamnosus DY801 and Application Thereof” (priority 2024, published 2025).
≈ marks a conversion by molar mass, not a printed value. Counter-ions that a name gives are not always drawn. Like-named read-outs stand apart in the source and are kept apart here.

Experiments:
[1] = test system: Lacticaseibacillus rhamnosus DY801; experiment: Antibiotic sensitivity by broth trace-dilution method (MIC); type: cell-based; conditions: for MIC: Lacticaseibacillus rhamnosus, read-out: Detected MIC; for Determination of the reading: sensitivity of DY801 to the antibiotic according to the General Standard
Procedure: In the present example, the sensitivity of Lacticaseibacillus rhamnosus DY801 against eight antibiotics was tested using the broth trace-dilution method according to “the General Standard of Probiotics for Food Use” (hereinafter referred as General Standard) published by the Chinese Institute of Food Science and Technology. The eight antibiotics were: tetracycline, streptomycin, ciprofloxacin hydrochloride, clindamycin, vancomycin, chloramphenicol, ampicillin and gentamicin. […] The minimum inhibitory concentration (hereinafter referred as MIC) of Lacticaseibacillus rhamnosus DY801 for each antibiotic was read after 48 hours. The strain thereof was determined to be sensitive(S), intermediate (I), resistant (R) and not required (n.r.) for the antibiotic according to the bacterial resistance criteria provided in the General Standard, and the results are shown in Table 2.

[2] = test system: Lacticaseibacillus rhamnosus DY801; conditions: bacterial resistance criteria of the General Standard of Probiotics for Food Use; cited from earlier work
[3] = DY801 suspension 1×10^8 CFU/mL, anaerobic 37° C., read after 48 hours

Compound	MIC [1, 3] [µg/mL]	Determination of the reading [1]	MIC in the General Standard [2] [µg/mL]	Detected MIC [1, 3] [µg/mL]	MIC ([1]; DY801, 48 h) [µg/mL]
CC1(C)S[C@@H]2[C@H](NC(=O)[C@H](N)c3ccccc3)C(=O)N2[C@H]1C(=O)O [ampicillin]	4 (≈ 11.4 µM)	S	4 (≈ 11.4 µM)		
O=C(N[C@H](CO)[C@H](O)c1ccc([N+](=O)[O-])cc1)C(Cl)Cl [chloromycetin, chloramphenicol]		S	4 (≈ 12.4 µM)	2	
O=C(O)c1cn(C2CC2)c2cc(N3CCNCC3)c(F)cc2c1=O [ciprofloxacin hydrochloride]	64				
CCC[C@@H]1C[C@@H](C(=O)N[C@@H]([C@H]2O[C@H](SC)[C@H](O)[C@@H](O)[C@H]2O)[C@H](C)Cl)N(C)C1 [clindamycin]	4 (≈ 9.41 µM)	S		4	
[H]/N=C(/N)N[C@H]1[C@H](O)[C@@H](O)[C@H](O[C@@H]2O[C@@H](C)[C@](O)(C=O)[C@H]2O[C@@H]2O[C@@H](CO)[C@H](O)[C@@H](O)[C@@H]2NC)[C@@H](N/C(N)=N\[H])[C@@H]1O [streptomycin]	32 (≈ 55 µM)	S	32 (≈ 55 µM)		
CN(C)[C@@H]1C(O)=C(C(N)=O)C(=O)[C@@]2(O)C(O)=C3C(=O)c4c(O)cccc4[C@@](C)(O)[C@H]3C[C@@H]12 [tetracycline]	8 (≈ 18 µM)	S			
CN[C@H](CC(C)C)C(=O)N[C@H]1C(=O)N[C@@H](CC(N)=O)C(=O)N[C@H]2C(=O)N[C@H]3C(=O)N[C@H](C(=O)N[C@H](C(=O)O)c4cc(O)cc(O)c4-c4cc3ccc4O)[C@H](O)c3ccc(c(Cl)c3)Oc3cc2cc(c3O[C@@H]2O[C@H](CO)[C@@H](O)[C@H](O)[C@H]2O[C@H]2C[C@](C)(N)[C@H](O)[C@H](C)O2)Oc2ccc(cc2Cl)[C@H]1O [vancomycin]					64 (≈ 44.2 µM)
gentamicin [gentamycin]		S	16	16	
